In general, IC50 refers to the midpoint of a concentration-inhibition curve.

The assay concerns Hedgehog signaling pathway. Nature of the assay: Gli-Luc luciferase reporter gene assay in C3H10T1/2/Gli-Luc cells under Shh-N stimulation. It counts as cell-based. The conditions noted are these: Mus musculus, C3H 10T1/2, 24 h, luciferase RLU, read-out: biological activity: IC50 of the inhibitory activities of compounds on the hedgehog pathway. A digest of the protocol: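 IC50 derived by curve fitting of luciferase RLU against log compound concentration. Stable C3H10T1/2/Gli-Luc cells, seeded overnight, were co-treated 24 h with serially diluted compound (7 points, duplicate wells) and 30 nM Shh-N-containing HEK293 conditioned medium before lysis and luminescence readout.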
(In general: A reporter such as luciferase makes a cellular process visible.)
With `COc1c(-c2ccc(N3C[C@@H](C)N(C(=O)c4ccccn4)[C@@H](C)C3)cc2)cnc2c(-c3ccc(C#N)cc3)cccc12` [Embodiment 186], the IC50 is no more than 50 nM.

On to `COc1c(-c2ccc(N3C[C@@H](C)O[C@@H](C)C3)cc2)cnc2c(-c3ccc(OC(F)(F)F)cc3)cc(F)cc12` [Embodiment 137], for which the IC50 is 100 to 500 nM. In the case of `Cc1cn(-c2ccc(N3CC(C)(C)C(O)C(C)(C)C3)cc2)c(=O)c2cccc(-c3ccc(C#N)cc3)c12` [Embodiment 39, 4-(2-(4-(4-hydroxy-3,3,5,5-tetramethylpiperidin-1-yl)phenyl)-4-methyl-1-oxo-1,2-dihydroisoquinolin-5-yl)benzonitrile] it was no more than 50 nM. Next, `COc1c(-c2ccc(N3C[C@@H](C)N(C(=O)c4cncc(C)c4)[C@@H](C)C3)cc2)cnc2c(-c3ccc(C#N)cc3)cccc12` [Embodiment 203]: no more than 50 nM.

`C[C@@H]1CN(c2ccc(-n3ccc4c(-c5ccc(C#N)cc5)cccc4c3=O)cn2)C[C@H](C)O1` [Embodiment 70, 4-(2-(6-(2,6-dimethylmorpholino-4-yl)pyridin-3-yl)-1-oxo-1,2-dihydroisoquinolin-5-yl)benzonitrile]: the IC50 lay in the range of 500 to 1000 nM.

With `COc1c(-c2ccc(N3C[C@@H](C)O[C@@H](C)C3)cc2)cnc2c(-c3cnc(N(C)C)nc3)cccc12` [Embodiment 110], the IC50 is 100 to 500 nM.

For the compound `COc1c(-c2ccc(N3C[C@@H](C)O[C@@H](C)C3)cc2)cnc2c(-c3ccc(OC(F)(F)F)cc3)cccc12` [Embodiment 91], the IC50 is no more than 50 nM. Next, `C[C@@H]1CN(c2ccc(-c3cnc4c(-c5ccc(OC(F)(F)F)cc5)cccc4c3C3CC3)cn2)C[C@H](C)O1` [Embodiment 265, (2S,6R)-4-(5-(4-cyclopropyl-8-(4-(trifluoromethoxy)phenyl)quinolin-3-yl)pyridin-2-yl)-2,6-dimethylmorpholine]: 50 to 100 nM. In the case of `COc1c(-c2ccc(N3C[C@@H](C)O[C@@H](C)C3)cc2)cnc2c(-c3ccc(C)nc3)cccc12` [Embodiment 94] it was no more than 50 nM; in that of `COc1c(-c2ccc(N3C[C@@H](C)O[C@@H](C)C3)cc2)cnc2c(-c3ccc(C#N)cc3)cncc12`, no more than 50 nM.

Consider `Cc1cn(-c2ccc(N3C[C@@H](C)O[C@@H](C)C3)cc2)c(=O)c2cccc(-c3ccccc3)c12` [Embodiment 57], for which the IC50 fell in the range of 500 to 1000 nM. Next, `CC(C)c1c(-c2ccc(N3C[C@@H](C)O[C@@H](C)C3)nc2)cnc2c(-c3ccc(C#N)cc3)cccc12` [Embodiment 258, 4-(3-(6-((2S,6R)-2,6-dimethylmorpholino)pyridin-3-yl)-4-isopropylquinolin-8-yl) benzonitrile]: 100 to 500 nM; `COc1c(N2CCC(O)(c3cc(C)cc(C)n3)CC2)cnc2c(-c3ccc(C#N)cc3)cccc12` [Embodiment 231, 4-(3-(4′-hydroxy-4,6-dimethyl-3′,4′,5′,6′-tetrahydro-2′H-[2,4′]bipyridyl-1′-yl)-4-methoxyquinolin-8-yl) benzonitrile]: no more than 50 nM; `C[C@@H]1CN(c2ccc(-c3cnc4c(-c5ccc(C#N)cc5)cccc4c3C3CC3)cc2)C[C@H](C)O1` [Embodiment 121, 4-(4-cyclopropyl-3-(4-((2S,6R)-2,6-dimethylmorpholino)phenyl)quinolin-8-yl) benzonitrile]: no more than 50 nM. As to `COc1c(-c2ccc(N3CC(C)N(C(C)=O)C(C(C)(C)O)C3)cc2)cnc2c(-c3ccc(C#N)cc3)cccc12` (centres unmarked) [Embodiment 191, 4-(3-(4-(4-acetyl-3-(2-hydroxypropan-2-yl)-5-methylpiperazin-1-yl)phenyl)-4-methoxyquinolin-8-yl)benzonitrile], the IC50 is no more than 50 nM. In the case of `COc1c(-c2ccc(N3C[C@@H](C)N(C(=O)C(C)(F)F)[C@@H](C)C3)nc2)cnc2c(-c3ccc(C#N)cc3)cccc12` [Embodiment 194] it was no more than 50 nM. For the compound `Cc1cc(-c2cccc3c(=O)n(-c4ccc(N5C[C@@H](C)O[C@@H](C)C5)cc4)cc(C)c23)ccc1C#N` [Embodiment 61], the IC50 was in the range of 100 to 500 nM.

(Values after patent publication US9938292B2 (GUANGDONG ZHONGSHENG PHARMACEUTICAL CO., LTD, priority 2014, dated 2018).)
